From US12240844B2 (Voronoi, Inc., priority 2019, dated 2025)

How the values were obtained:
LRRK2 (G2019S) = LRRK2 (G2019S) (Homo sapiens, UniProt Q5S007, G2019S); assay: LRRK2 G2019S enzyme inhibition, ADP-Glo kinase assay; format: biochemical; parameters: purchased SignalChem L10-12GG
Outline: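 Purified human LRRK2 G2019S (16 ng) with 25 μM ATP and 0.2 μg substrate, 2 h at 25° C in 40 mM Tris-HCl pH 7.4, 20 mM MgCl2, 0.5 mg/ml BSA, 50 μM DTT; compound at 12 final concentrations from 50 μM downward. ADP-Glo luminescence versus solvent control gave IC50 (nM).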

MDA-MB-468 cell line = assay: MDA-MB-468 cancer cell proliferation inhibition (Cell Titer-Glo); format: cell-based; settings: Homo sapiens, MDA-MB-468 triple-negative breast cancer cell line, 72 hours
Procedure: In order to evaluate the cancer cell proliferation inhibitory activity of the compounds of the present invention, the following experiments were performed.
To evaluate the cancer cell proliferation inhibitory effect, the cell growth rate analysis was performed while culturing MDA-MB-231 cell line (Korean Cell Line Bank #30026) and MDA-MB-468 cell line as the triple-negative breast cancer cell line, and SHP-77 (ATCC #CRL-2195) as the small cell lung cancer cell line in DMEM (HyClone #SH30243) and RPMI medium (HyClone #SH3027.01), respectively. More specifically, the cell lines were each plated at 2000 cells/100 μl in each well of a 96-well flat-bottom plate (coming #3903), and then the example compounds having eleven concentrations which were diluted by ⅓ so that the final concentrations were 10.000000, 3.333333, 1.111111, 0.370370, 0.123457, 0.041152, 0.013717, 0.004572, 0.001524, 0.000508 and 0.000169 μM were treated. After 72 hours, 100 μl of Cell Titer-Glo (Promega G7573) was treated, incubated at RT for 10 minutes, and then luminescence was measured using a microplate reader. The measured luminescence degree was calculated as GI50 using Prism (version 8.2 GraphPad) software.
In the table below, the following designations were used for the evaluation of proliferation inhibitory activity.

human GST-CLK1 (129-end) = biological target: T1, human GST-CLK1 (129-end) (Homo sapiens, UniProt P49759); assay: GST-CLK1 enzyme inhibition, ADP-Glo kinase assay; format: biochemical; settings: ATP 10 uM
T1 construct: purified human GST-CLK1 (129-end, Signalchem) enzyme; GST; purchased Signalchem
T1 sequence (P49759 129-484 limits assumed): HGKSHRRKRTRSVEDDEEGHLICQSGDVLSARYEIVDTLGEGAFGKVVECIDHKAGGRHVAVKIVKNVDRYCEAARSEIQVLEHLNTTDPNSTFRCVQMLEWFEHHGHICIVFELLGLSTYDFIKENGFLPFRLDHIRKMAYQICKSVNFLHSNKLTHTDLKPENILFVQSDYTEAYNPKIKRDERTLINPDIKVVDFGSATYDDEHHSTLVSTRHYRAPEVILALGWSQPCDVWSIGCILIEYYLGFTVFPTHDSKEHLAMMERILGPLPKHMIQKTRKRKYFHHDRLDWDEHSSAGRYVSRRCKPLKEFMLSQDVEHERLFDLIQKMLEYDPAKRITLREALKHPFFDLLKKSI
Outline: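 GST-CLK1 (129-end, 3 ng) reacted with 10 uM ATP and substrate in 40 mM Tris-HCl pH 7.4, 20 mM MgCl2, 0.5 mg/mL BSA, 50 uM DTT, 1 h at 25° C. ADP-Glo luminescence normalised to solvent control; IC50 from triplicate data.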

LRRK2 = LRRK2 (Homo sapiens, UniProt Q5S007); assay: LRRK2 enzyme inhibition, ADP-Glo kinase assay; format: biochemical; parameters: purchased Invitrogen PR8604B
LRRK2, sequence (Q5S007 970-2527 limits assumed): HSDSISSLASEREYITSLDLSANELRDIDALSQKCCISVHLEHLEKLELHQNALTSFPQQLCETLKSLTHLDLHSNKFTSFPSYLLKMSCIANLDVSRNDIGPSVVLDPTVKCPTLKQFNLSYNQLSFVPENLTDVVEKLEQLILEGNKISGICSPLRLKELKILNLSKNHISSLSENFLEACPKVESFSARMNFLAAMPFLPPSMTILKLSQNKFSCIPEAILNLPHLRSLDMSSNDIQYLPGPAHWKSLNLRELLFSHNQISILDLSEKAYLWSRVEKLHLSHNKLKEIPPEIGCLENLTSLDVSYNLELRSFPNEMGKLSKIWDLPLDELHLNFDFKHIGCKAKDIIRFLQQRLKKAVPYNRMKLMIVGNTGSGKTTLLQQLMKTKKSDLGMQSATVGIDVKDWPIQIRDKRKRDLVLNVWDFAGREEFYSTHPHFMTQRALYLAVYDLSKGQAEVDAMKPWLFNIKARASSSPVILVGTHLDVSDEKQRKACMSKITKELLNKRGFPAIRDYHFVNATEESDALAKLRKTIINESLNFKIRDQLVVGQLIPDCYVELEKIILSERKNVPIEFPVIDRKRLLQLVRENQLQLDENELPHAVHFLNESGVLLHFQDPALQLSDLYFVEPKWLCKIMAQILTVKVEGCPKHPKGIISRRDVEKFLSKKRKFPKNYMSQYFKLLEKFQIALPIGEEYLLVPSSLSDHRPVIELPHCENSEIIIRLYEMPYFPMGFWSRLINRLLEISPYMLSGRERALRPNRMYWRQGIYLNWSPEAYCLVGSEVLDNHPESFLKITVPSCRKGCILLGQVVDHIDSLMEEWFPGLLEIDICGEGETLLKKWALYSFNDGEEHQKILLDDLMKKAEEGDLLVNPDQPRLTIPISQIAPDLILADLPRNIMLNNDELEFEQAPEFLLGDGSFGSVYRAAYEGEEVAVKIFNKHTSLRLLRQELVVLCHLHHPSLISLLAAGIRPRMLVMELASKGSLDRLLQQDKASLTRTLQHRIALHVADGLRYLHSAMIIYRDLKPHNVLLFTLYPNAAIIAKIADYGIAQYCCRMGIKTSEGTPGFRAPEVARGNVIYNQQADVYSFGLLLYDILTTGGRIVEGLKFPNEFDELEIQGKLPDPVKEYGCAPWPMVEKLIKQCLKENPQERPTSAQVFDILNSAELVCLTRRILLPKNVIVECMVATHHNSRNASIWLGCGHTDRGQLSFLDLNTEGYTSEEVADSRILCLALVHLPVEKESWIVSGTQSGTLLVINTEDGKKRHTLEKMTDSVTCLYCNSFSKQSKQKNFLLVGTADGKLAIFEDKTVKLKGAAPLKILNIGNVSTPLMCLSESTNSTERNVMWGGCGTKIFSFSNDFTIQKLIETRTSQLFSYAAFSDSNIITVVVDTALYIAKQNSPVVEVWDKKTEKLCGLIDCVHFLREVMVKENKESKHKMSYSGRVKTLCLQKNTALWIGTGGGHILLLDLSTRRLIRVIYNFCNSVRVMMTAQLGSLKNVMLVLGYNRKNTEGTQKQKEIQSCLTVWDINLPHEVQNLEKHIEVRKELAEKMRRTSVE
Outline: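 Purified human LRRK2 (25 ng) in 40 mM Tris-HCl pH7.4, 20 mM MgCl2, 0.5 mg/ml BSA, 50 μM DTT with 10 μM ATP and substrate ([…]), 2 h at 25° C. Final compound 50 to 0.000001024 μM, 12-point dilution. ADP-Glo luminescence vs solvent control; IC50 (nM).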

[1] = biological target: T2, human GST-DYRK1A (full length) (Homo sapiens, UniProt Q13627); assay: GST-DYRK1A enzyme inhibition, ADP-Glo kinase assay; format: biochemical; settings: read-out: DYRK1 IC50
T2 construct: purified human GST-DYRK1A (full length, Thermo scientifics) enzyme; GST; purchased Thermo scientifics
Outline: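 Full-length human GST-DYRK1A (10 ng) incubated with 10 uM ATP and specific substrate for 1 h at 25° C in 40 mM Tris-HCl pH 7.4, 20 mM MgCl2, 0.5 mg/mL BSA, 50 uM DTT. ADP formation read by ADP-Glo luminescence; IC50 (nM) versus solvent control, triplicate.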

IL-6 = IL-6 secretion inhibition in LPS-treated THP-1 cells (ELISA); format: cell-based; settings: Homo sapiens, compound 0.5 μM, LPS 500 ng/ml, 24 hours, read-out: THP1/IL6 (% inhib)
Procedure: (§1) In order to evaluate the cytokine secretion inhibitory efficacy of mononuclear cells, THP-1 cells (ATCC, #TIB-202) as a human-derived monocyte cell line were cultured in RPMI-1640 (Hyclone, SH30027.01) media in which 10% fetal bovine serum (Hyclone, SH30084.03), 1% penicillin streptomycin (Welgene, LS202-02) and 50 μM 2-Mercaptoethanol (Gibco, #21985023) were contained. In the test, 1.5-2×10^5 cells/250 μl per each well were dispensed in a 48-well plate (SPL, #30048) and incubated in an incubator at 37° C. and 5% CO2 for 16 hours, and then the compounds were diluted in DMSO so that the final concentration was 0.5 μM. It was treated with Lipopolysaccharides (LPS) (sigma, #L6529) […]. After treatment with the compound, the LPS was treated so that the final concentration was 500 ng/ml, and then the cell culture fluid was collected after culturing for 24 hours, and the degrees of the cytokines IL-6 (R&D system, #D6050) and TNF-α (R&D system, #DTA00D) contained in the culture fluid were collected using each ELISA kit. After performing the experiment according to the manufacturer's instructions, the absorbance at 450 nm was measured and analyzed using a microplate reader.

THP-1 = THP-1 GI50 (Table 4, method not given); format: cell-based; settings: Homo sapiens; THP-1 cells
TNF-α = TNF-α secretion inhibition in LPS-treated THP-1 cells (ELISA); format: cell-based; settings: Homo sapiens, compound 0.5 μM, LPS 500 ng/ml, 24 hours, read-out: THP-1/TNF-a (% inhib)
Procedure: as §1

MDA-MB-231 cell line = assay: MDA-MB-231 cancer cell proliferation inhibition (Cell Titer-Glo); format: cell-based; settings: Homo sapiens, MDA-MB-231 triple-negative breast cancer cell line, 72 hours
Outline: (§2)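 GI50 comes from CellTiter-Glo luminescence, read 10 min after reagent addition at RT, following 72 h compound treatment. Eleven concentrations were used (⅓ steps, highest 10 μM final) on 2000 cells/well. MDA-MB-231 and MDA-MB-468 were grown in DMEM, SHP-77 in RPMI.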

SHP-77 = SHP-77 cancer cell proliferation inhibition (Cell Titer-Glo); format: cell-based; settings: Homo sapiens, SHP77, SHP-77 small cell lung cancer cell line, 72 hours
Outline: as §2

human DYRK1A and Tau = assay: Tau phosphorylation inhibition, ClariCELL Kinase Cell-Based Assay (Carnabio)
Outline: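 HEK293 cells transiently expressing human DYRK1A and Tau were exposed to compound, then lysed. Released Tau was captured on plate and its phosphorylation quantified by ELISA with a phospho-Tau-specific antibody.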

[2] = biological target: T3, LRRK2, LRRK2 (G2019S), DYRK1, CLK1 and TTK kinases (Homo sapiens, UniProt Q13627); assay: Enzyme IC50 by Kinase HotSpot service (Reaction Biology Corporation), values marked with *; format: biochemical; settings: DYRK1, ATP 10 uM
T3 construct: other: DYRK1; Kinase HotSpot service (Reaction Biology), ATP 10 uM
Procedure: (§3) Meanwhile, the enzyme IC50 measurement for some compounds was performed using Kinase HotSpot service (Reaction Biology Corporation); during the test, the ATP concentration was 10 uM, where all were conducted under the same condition; and the concentration of the compound was measured by giving a 3-fold concentration gradient with the highest concentration of […], where the values measured using Kinase HotSpot service (Reaction Biology Corporation) were marked with “*”.
(§4) All experimental methods were performed as provided in Kinase HotSpot Customer Protocol (http://www.reactionbiology.com//Kinase_Assay_Protocol).
(§5) In the table below, the following designations were used for the evaluation of enzyme inhibitory ability.

[3] = biological target: T4, LRRK2, LRRK2 (G2019S), DYRK1, CLK1 and TTK kinases (Homo sapiens, UniProt Q5S007); assay: as above; format: biochemical; settings: LRRK2, ATP 10 uM
T4 construct: LRRK2 IC50 (marked with *); other: LRRK2; Kinase HotSpot service (Reaction Biology), ATP 10 uM
T4 sequence (Q5S007 whole entry G2019S): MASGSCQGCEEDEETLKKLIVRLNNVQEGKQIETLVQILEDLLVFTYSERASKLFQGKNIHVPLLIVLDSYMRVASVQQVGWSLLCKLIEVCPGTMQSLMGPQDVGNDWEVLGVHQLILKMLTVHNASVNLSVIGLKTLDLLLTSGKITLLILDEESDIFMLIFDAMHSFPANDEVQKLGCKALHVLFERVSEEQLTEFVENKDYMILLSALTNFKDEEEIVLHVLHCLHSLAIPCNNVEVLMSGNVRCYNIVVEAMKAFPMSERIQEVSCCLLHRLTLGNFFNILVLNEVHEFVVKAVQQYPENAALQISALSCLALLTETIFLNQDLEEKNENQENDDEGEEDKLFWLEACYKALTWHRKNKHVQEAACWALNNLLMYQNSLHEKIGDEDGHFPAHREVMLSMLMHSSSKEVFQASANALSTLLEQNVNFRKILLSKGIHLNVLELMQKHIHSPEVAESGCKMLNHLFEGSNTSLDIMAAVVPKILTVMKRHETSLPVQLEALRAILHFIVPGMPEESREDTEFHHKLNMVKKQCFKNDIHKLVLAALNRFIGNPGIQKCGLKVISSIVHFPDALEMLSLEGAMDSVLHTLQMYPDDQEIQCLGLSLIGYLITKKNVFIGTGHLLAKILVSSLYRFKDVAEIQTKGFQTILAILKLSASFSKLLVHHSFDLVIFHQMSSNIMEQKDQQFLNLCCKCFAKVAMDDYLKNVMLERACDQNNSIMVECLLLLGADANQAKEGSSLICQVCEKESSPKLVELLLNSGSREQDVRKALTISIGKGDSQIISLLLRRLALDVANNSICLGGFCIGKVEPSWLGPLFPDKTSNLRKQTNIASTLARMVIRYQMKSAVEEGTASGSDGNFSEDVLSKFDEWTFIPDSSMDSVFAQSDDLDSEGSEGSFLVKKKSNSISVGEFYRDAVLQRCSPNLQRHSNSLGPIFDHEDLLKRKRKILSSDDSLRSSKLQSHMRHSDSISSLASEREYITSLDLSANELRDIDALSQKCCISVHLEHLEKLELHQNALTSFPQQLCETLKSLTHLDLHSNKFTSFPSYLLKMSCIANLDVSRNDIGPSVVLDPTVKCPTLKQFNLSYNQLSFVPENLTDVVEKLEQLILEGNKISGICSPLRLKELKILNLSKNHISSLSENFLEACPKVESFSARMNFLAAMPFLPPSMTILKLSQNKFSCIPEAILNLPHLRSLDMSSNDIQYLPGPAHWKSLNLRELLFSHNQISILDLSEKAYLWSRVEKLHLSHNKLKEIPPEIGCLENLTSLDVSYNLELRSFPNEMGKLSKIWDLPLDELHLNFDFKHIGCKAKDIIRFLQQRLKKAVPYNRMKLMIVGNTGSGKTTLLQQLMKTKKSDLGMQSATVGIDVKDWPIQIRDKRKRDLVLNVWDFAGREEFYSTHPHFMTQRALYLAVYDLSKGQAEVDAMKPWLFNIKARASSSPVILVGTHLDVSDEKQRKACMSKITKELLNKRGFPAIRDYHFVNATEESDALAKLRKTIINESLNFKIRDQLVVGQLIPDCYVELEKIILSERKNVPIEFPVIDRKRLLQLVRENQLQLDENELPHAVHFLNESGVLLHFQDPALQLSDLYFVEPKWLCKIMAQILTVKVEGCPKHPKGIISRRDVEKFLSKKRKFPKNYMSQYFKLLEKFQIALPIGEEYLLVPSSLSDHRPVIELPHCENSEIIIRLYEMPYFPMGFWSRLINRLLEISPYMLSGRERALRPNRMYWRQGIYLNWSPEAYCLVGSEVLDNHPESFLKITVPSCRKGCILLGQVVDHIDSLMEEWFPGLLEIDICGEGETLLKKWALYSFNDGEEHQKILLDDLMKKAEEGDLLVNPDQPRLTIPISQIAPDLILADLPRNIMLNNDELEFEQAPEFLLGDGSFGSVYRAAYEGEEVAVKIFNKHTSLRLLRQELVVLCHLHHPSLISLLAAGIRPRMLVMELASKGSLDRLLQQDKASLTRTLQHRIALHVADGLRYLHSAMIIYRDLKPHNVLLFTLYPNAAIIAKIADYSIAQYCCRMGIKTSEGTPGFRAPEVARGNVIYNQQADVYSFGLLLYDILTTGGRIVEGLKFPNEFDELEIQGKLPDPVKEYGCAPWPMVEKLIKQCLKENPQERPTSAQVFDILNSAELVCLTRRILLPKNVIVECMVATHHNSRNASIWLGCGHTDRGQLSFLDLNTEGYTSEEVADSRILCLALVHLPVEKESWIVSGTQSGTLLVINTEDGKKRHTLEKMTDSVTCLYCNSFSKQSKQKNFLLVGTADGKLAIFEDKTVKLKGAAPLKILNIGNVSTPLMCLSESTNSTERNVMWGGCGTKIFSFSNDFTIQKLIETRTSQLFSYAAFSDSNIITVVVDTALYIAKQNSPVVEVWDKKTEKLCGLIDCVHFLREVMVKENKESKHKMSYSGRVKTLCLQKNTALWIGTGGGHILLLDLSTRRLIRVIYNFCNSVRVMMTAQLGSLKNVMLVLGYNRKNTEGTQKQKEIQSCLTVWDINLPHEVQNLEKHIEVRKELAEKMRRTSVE
Procedure: as §3, §4, §5

[4] = biological target: T5, LRRK2, LRRK2 (G2019S), DYRK1, CLK1 and TTK kinases (Homo sapiens, UniProt P49759); assay: as above; format: biochemical; settings: CLK1, ATP 10 uM
T5 construct: CLK1 IC50 (marked with *); other: CLK1; Kinase HotSpot service (Reaction Biology), ATP 10 uM
T5 sequence (P49759 whole entry, stated change not applied): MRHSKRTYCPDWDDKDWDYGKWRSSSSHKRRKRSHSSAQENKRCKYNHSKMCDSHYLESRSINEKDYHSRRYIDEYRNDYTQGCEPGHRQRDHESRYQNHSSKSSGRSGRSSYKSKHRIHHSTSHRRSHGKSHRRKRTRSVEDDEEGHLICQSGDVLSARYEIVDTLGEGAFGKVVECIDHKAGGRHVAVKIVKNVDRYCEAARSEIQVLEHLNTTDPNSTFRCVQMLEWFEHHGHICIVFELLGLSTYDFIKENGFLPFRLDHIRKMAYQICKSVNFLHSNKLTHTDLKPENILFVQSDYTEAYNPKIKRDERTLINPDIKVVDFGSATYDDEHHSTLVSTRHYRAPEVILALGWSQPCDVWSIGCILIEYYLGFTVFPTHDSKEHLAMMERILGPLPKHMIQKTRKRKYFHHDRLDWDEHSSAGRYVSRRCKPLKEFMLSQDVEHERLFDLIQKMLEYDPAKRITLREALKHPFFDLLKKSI
Procedure: as §3, §4, §5

LRRK2 (G2019S), sequence (Q5S007 970-2527 G2019S limits assumed): as the sequence (Q5S007 970-2527 limits assumed) above, with G1050S counted along it

IC50 (LRRK2 (G2019S))	GI50 (MDA-MB-468 cell line)	IC50 (human GST-CLK1 (129-end))	IC50 (LRRK2)	IC50 [1]	GI50 (THP-1)	GI50 (MDA-MB-231 cell line)	GI50 (SHP-77)	IC50 [2]	IC50 [3]	IC50 [4]	SMILES	inhibition at 0.5 µM (IL-6)	inhibition at 0.5 µM (TNF-α)	inhibition at 0.25 µM (human DYRK1A and Tau)	inhibition at 0.5 µM (human DYRK1A and Tau)	inhibition at 1 µM (human DYRK1A and Tau)
< 100 nM	51 to 100 nM	301 to 1000 nM	< 100 nM	301 to 1000 nM	–	–	–	–	–	–	N#Cc1c[nH]c2nc(Nc3ccc(C(=O)N4CCOCC4)c4c3OCCO4)cc(NC3CCCC3)c12 [Example 112, 4-(cyclopentylamino)-6-((8-(morpholine-4-carbonyl)-2,3-dihydrobenzo[b] [1,4]dioxin-5-yl)amino)-1H-pyrrolo[2,3-b]pyridine-3-carbonitrile]	–	–	–	–	–
–	101 to 300 nM	301 to 1000 nM	–	301 to 1000 nM	–	51 to 100 nM	51 to 100 nM	–	–	–	COc1cc(S(=O)(=O)N2CCC(N3CCOCC3)CC2)ccc1Nc1cc(NC2CCCCC2)c2c(C#N)c[nH]c2n1 [Example 151, N^4-(cyclohexylamino)-N^6-((2-methoxy-4-((4-morpholinopiperidin-1-yl)sulfonyl)phenyl)amino)-1H-pyrrolo[2,3-b]pyridine-3-carbonitrile]	–	–	–	–	–
301 to 1000 nM	–	–	–	–	–	301 to 1000 nM	301 to 1000 nM	< 100 nM	< 100 nM	< 100 nM	COc1cc(S(=O)(=O)N2CCC(N3C[C@@H]4C[C@H]3CO4)CC2)ccc1Nc1cc(C2CC2)c2c(C(F)(F)F)c[nH]c2n1 [Example 240, N-(4-((4-((1S,4S)-2-oxa-5-azabicyclo[2.2.1]heptan-5-yl)piperidin-1-yl)sulfonyl)-2-methoxyphenyl)-4-cyclopropyl-3-(trifluoromethyl)-1H-pyrrolo[2,3-b]pyridin-6-amine]	–	–	8.9%	16.5%	36.3%
301 to 1000 nM	–	–	–	–	–	301 to 1000 nM	301 to 1000 nM	< 100 nM	< 100 nM	< 100 nM	COc1cc(S(=O)(=O)N2CCC(N3C[C@H]4C[C@@H]3CO4)CC2)ccc1Nc1cc(C2CC2)c2c(C(F)(F)F)c[nH]c2n1 [Example 239, N-(4-((4-((1R,4R)-2-oxa-5-azabicyclo [2.2.1]heptan-5-yl)piperidin-1-yl)sulfonyl)-2-methoxyphenyl)-4-cyclopropyl-3-(trifluoromethyl)-1H-pyrrolo[2,3-b]pyridin-6-amine]	–	–	22%	50.9%	71.2%

Second part, the molecule before the results:

SMILES	IC50 (LRRK2 (G2019S))	GI50 (MDA-MB-468 cell line)	IC50 (human GST-CLK1 (129-end))	IC50 (LRRK2)	IC50 [1]	GI50 (THP-1)	GI50 (MDA-MB-231 cell line)	GI50 (SHP-77)	IC50 [2]	IC50 [3]	IC50 [4]	inhibition at 0.5 µM (IL-6)	inhibition at 0.5 µM (TNF-α)	inhibition at 0.25 µM (human DYRK1A and Tau)	inhibition at 0.5 µM (human DYRK1A and Tau)	inhibition at 1 µM (human DYRK1A and Tau)
N#Cc1c[nH]c2nc(Nc3ccc(C(=O)N4CCOCC4)c4c3OCCO4)cc(NC3CCCCC3)c12 [Example 150, N^4-(cyclohexylamino)-N^6-((8-(morpholine-4-carbonyl)-2,3-dihydrobenzo [b] [1,4]dioxin-5-yl)amino)-1H-pyrrolo[2,3-b]pyridine-3-carbonitrile]	–	51 to 100 nM	301 to 1000 nM	–	301 to 1000 nM	–	–	–	–	–	–	–	–	–	–	–
CCNc1cc(Nc2ccc(C(=O)N3CCOCC3)c3c2OCCO3)nc2[nH]cc(C(F)(F)F)c12 [Example 153, (8-((4-(ethylamino)-3-(trifluoromethyl)-1H-pyrrolo[2,3-b]pyridin-6-yl)amino)-2,3-dihydrobenzo[b] [1,4]dioxin-5-yl)(morpholino) methanone]	101 to 300 nM	–	< 100 nM	< 100 nM	< 100 nM	14400 nM	–	–	–	–	–	32.7%	40.4%	–	–	–
N#Cc1c[nH]c2nc(Nc3ccc(C(=O)N4CCC(N5CCOCC5)CC4)c4c3OCCO4)cc(NC3CCCCC3)c12 [Example 149, 4-(cyclohexylamino)-6-((8-(4-morpholinopiperidine-1-carbonyl)-2,3-dihydrobenzo [b] [1,4]dioxin-5-yl)amino)-1H-pyrrolo[2,3-b]pyridine-3-carbonitrile]	–	101 to 300 nM	301 to 1000 nM	–	301 to 1000 nM	–	–	–	–	–	–	–	–	–	–	–
CNc1cc(Nc2ccc(C(=O)N3CCOCC3)c3c2OCCO3)nc2[nH]cc(C(F)(F)F)c12 [Example 152, (8-((4-(methylamino)-3-(trifluoromethyl)-1H-pyrrolo[2,3-b]pyridin-6-yl)amino)-2,3-dihydrobenzo [b] [1,4]dioxin-5-yl)(morpholino) methanone]	< 100 nM	101 to 300 nM	< 100 nM	< 100 nM	< 100 nM	–	–	–	–	–	–	–	–	–	–	–
